# Reference: patent publication US20120053076A1, “METHODS FOR IDENTIFICATION” (Cambridge Enterprise Limited, priority 2009, published 2012)
# Where two headings read alike, the source gives them in different places.
# Key:
# Panc-2H4 cells = test: Human Panc-2H4 insulin suppression assay; format: cell-based
# Text: Two different assays for “classical” sstr2 functions were adopted: (1) cultured foetal rat pituitary cells secreted growth hormone which is inhibited by sstr2 agonists in a dose-dependent fashion and (2) selected glucose-sensitive sub-clones of the human Panc-1 cell line secrete insulin which is inhibited by sstr2 agonists in a dose-dependent fashion.
# Glucose-sensitive sub-clones of the human Panc-1, a cell line derived from a pleiomorphic epithelioid carcinoma of the exocrine pancreas, were obtained essentially as described by Hamil et al. (2008) Biomed. Sci. Instrum. 44:441-6. Briefly, Panc-1 cells were subcultured in 24 well plates, and the medium was supplemented with an additional 5% glucose. […] The resulting sub-lines were then tested for glucose sensitivity by preparing wells of a 96-well plate (5×10^4 cells per well) which were then exposed to cultured medium containing a range of glucose concentrations (low glucose DMEM, DMEM, DMEM+1% glucose, DMEM+2.5% glucose and DMEM+5% glucose). After 24 hrs incubation, the conditioned medium was collected and assayed for insulin secretion by ELISA (Linco; cat# EZHI-14K) in accordance with the manufacturer's instructions.
# Further 96 well plates were prepared using Panc-2H4 (5×10^4 cells per well) in DMEM. After 24 hrs, the medium was switched to DMEM+5% glucose containing various test agents at various concentrations (triplicate wells per condition). After a further 24 hrs, the conditioned medium was harvested and the concentration of insulin was determined by ELISA as described above.
# Results were reported as the mean±SD, expressed as the fold change from cells in the presence of vehicle only.
# sstr2 = target: T1, sstr2 (Homo sapiens, UniProt P30874); test: Equilibrium binding of [3H]-BN83250 to THP-1 cells; settings: competition with [3H]-BN83250
# T1 construct: with 1×10^6 THP-1 cells in Gey's Balanced Salt Solution; endogenous in cells; host or cells: THP-1 cells (whole cells, 4° C.)
# Description: Methods: [^3H]-BN83250 was synthesesized from (S,E)-3-(2′,2′-dimethyldodec-4′-enoylamino)-caprolactam by catalytic hydrogenation using tritium gas over a palladium catalyst (CRB Ltd, Cleveland, UK), yielding the tritiated product at a concentration of […] in ethanol with a specific activity of 220 Ci/mmol. The (S,E)-3-(2′,2′-dimethyldodec-4′-enoylamino)-caprolactam was prepared as follows: (S,S)-3-amino-caprolactam hydro-pyrrolidine-5-carboxylate (10 mmol) and Na2CO3 (30 mmol) in water (30 ml) were added to a solution of 2,2-dimethyl-dodec-4-enoyl chloride (10 mmol) in dichloromethane (30 ml) at ambient temperature and the reaction was stirred for 12 hours. The organic layer was then separated and the aqueous phase was extracted with additional dichloromethane (2×25 ml). The combined organic layers were dried over Na2CO3 and reduced in vacuo. The residue was purified by silica column chromatography (1:1 EtOAc:hexanes to EtOAc) to give […]-3-(2′,2′-dimethyl-dodec-4′-enoyl)amino-caprolactam as a colourless oil (2.12 g, 63%). The radiolabelled compound was stored in the dark at 4° C. until required. Prior to use the specific activity was adjusted by addition of unlabelled BN83250.
# For the analysis of binding, individual reactions were set up (in triplicate for each condition), with 1×10^6 THP-1 cells in Gey's Balanced Salt Solution, 10 nM [^3H]-BN83250 (at 50 Ci/mmol) and various concentrations of (S)-3(2′2′-dimethylpropionoylamino)-tetrahydropyridin-2-one (10 pM to 10 μM). Excess (100 μM) unlabelled BN83250 was used to determine the level of non-specific binding. After 2 hours at 4° C. (conditions previously shown to achieve equilibrium binding, and which prevent uptake of the radioligand that would result in an over-estimate of binding) excess label was washed away by centrifugation (3 washes with 5 ml of Gey's Balanced Salt Solution) and the bound radioactivity was determined by scintillation counting of the solubilised cell pellet.
# Oral bioavailability = settings: in vivo
# T1 sequence (P30874 whole entry): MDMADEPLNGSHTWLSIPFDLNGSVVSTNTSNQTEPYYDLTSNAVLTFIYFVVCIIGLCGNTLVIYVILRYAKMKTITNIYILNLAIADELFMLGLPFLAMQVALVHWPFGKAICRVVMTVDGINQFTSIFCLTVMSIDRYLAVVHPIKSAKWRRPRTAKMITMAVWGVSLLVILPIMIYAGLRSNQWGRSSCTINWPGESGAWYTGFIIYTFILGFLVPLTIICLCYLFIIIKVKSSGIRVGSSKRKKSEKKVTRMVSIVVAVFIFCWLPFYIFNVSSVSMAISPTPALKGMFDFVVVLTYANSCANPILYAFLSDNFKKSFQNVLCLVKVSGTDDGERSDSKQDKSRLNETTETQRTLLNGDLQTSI
Molecule,"EC50 (Panc-2H4 cells; Homo sapiens, Table 3, read-out: Human Panc-2H4 insulin suppression assay ED50) [nM]",Hill Slope (sstr2),"EC50 (Panc-2H4 cells; Table 3, read-out: Human Panc-2H4 insulin suppression assay ED50) [nM]","Human Panc-2H4 insulin suppression assay Max effect (Panc-2H4 cells; Table 3, suppression compared to vehicle) [%]",Panc-2H4 insulin suppression assay (“classical” target) Max Effect (Panc-2H4 cells; Table 5) [%],"EC50 (Panc-2H4 cells; Table 5, read-out: Panc-2H4 insulin suppression assay (“classical” target) ED50) [nM]","Oral bioavailability, in words (Oral bioavailability)"
"CC(C)(C)C(=O)N[C@H]1CCCNC1=O [Valerolactam, (S)-3-(2′,2′-dimethylpropionoylamino)-tetrahydropyridin-2-one]",> 1000,approximately −1.0,,,,,
"(S)-3-(2′,2′-dimethyldodecanoyl)amino-caprolactam [BN83250]",,,1000,28,28,1000,only poorly orally bioavailable
